Measurements: patent US6753424B1, “Conjugates of DNA interacting groups with steroid hormones for use as nucleic acid transfection agents” (priority 1998, dated 2004)

How the values were obtained:
3Y1 cells = test: Transfection enhancement, CMV-LacZ reporter, CaPO4 transfection of 3Y1 cells; format: cell-based, rat; conditions: 5 μg reporter, 3Y1
Procedure: Conditions: 3Y1 cells are transfected with an expression vector that is constitutively expressing the reporter gene LacZ (CMV-LacZ). Transfection conditions are identical throughout the various samples (total 10-12 μq DNA for 4 cm dishes). In some samples the DNA used for the transfection cocktail is pre-incubated with various conjugates at the given concentrations. The concentrations are calculated to give from 10−8 to 10−6 M after dispersing the CaPO4 precipitate in the recipient dish (5 ml volume). Transfection is performed O/N and after rinsing of the precipitate the cells are further incubated for 24 hours. LacZ levels are determined from cell extracts with a chemiluminescence LacZ enzyme assay (Galactolight plus. Tropix). The relative luminescence from each extract is given in RLU/mg*1000.
Cell culture. Cells are cultivated in DMEM supplemented with serum and antibiotica according to standard conditions (typically 10% FCS and Pen/Strep as antibiotica). At the day of transfection, cells are trypsinized and seeded at around 25-30% confluency. Cells are allowed to adhere to dish for 4-6 hours prior to transfection.
DNA pre-incubation (example for conditions that give5×10 exp (−6) Molar final concentration of the CL-C4-EtBr conjugate):
5 microgram of CMV-LacZ DNA (in 10 microliter TE) are mixed with 10 nmoles of hormone derivative (10 microliters stock solution) and incubated for 10 min at room temperature (final volume: 20 ul). The DNA/cortisol-C4-ethidum mix is then supplemented with 7 micrograms sheared calf thymus carrier DNA (in 14 microliters TE) and bidistilled water to give a final volume of 125 microliters.
Transfection by CaPO4: to each transfection sample (125 microliter volume DNA+water). 125 microliters of Ca ++ mix are added, and the mix is incubated for 5-10 min at room temperature. Each sample is then supplemented with 250 microliter of Pi-mix (with simultaneous mixing by up-down pipetting) and is further incubated 10 minutes at room temperature after which the cocktail is poured on top of the medium (5 ml) of each cell culture dish (4 cm diameter). The optimal time of incubation after Pi-mix addition is pre-determined by prior evaluation (size of the precipitate) of parallel samples. The precipitate is allowed to deposit onto the cells for 15 hours (incubation of 37 degrees, 5% CO2). The cells are then rinsed twice with Tris-buffered Saline, supplemented with fresh medium and further incubated under standard conditions. To analyze LacZ reporter gene function, the cells are either fixed or harvested 24 hours after precipitate removal.
Variation of parameters: samples in which the C1-C4-EtBr conjugates (or control compounds) are used at different concentrations, are similarly treated, except that the concentration of the stock solution in ethanol is correspondingly varied.

GR-GFP chimera [1] = test: Nuclear Transfer Induction assay (NTI), monourethane ligands, HeLa cells; format: cell-based; conditions: 1 hr
Procedure: Conditions: HeLa cells are transiently transfected by CaPO4 with an expression vector encoding a GR-GFP chimera (5 μg in transfection cocktail, 4 cm diameter dishes, DMEM with 3% FCS). After 24 hour expression, ligand is added for 1 hr and cells are fixed with formaldehyde (5 min 4° C.) and inspected by fluorescence microscopy. Fluorescent cells are counted and divided into different classes according to ‘cytoplasmic’ (C) versus ‘nuclear’ (N) localisation of fluorescence.
First column: “Conditions”: Name of compounds added (marked at top: ‘//ligand’), and their concentration (in parentheses) and assay number (01 through 21).
Values are given as percentage of cells displaying the corresponding localisatidn, within each tested condition the sum is 100%.

[2] = Stability of C-21 ester versus C-21 urethane derivatives (TLC analysis); format: in vitro ADME; conditions: pH 5, pH 9, proteinase K (pH 7.8, 50 μg/ml), dispase (2.4 U/ml), cellular extracts, DMEM/10% FCS
Procedure: b) water buffered to pH 9;
c) water buffered to pH 5;
e) proteinase K (pH 7.8; 50 μg/ml);
After 15 hours of incubation each sample is separately extracted with 400 μl Ethyl acetate, evaporated under N2-flow, redissolved in 20 μl Ethyl acetate and analysed by TLC analysis: stationary phase: Alugram SIL G-25 UV254 (Macherey Nagel AG); mobile phase: Ethyl acetate-MeOH-Acetone (3-1-3).

HUH-7 cells = test: Transfection enhancement, CMV-LacZ reporter, HUH-7 cells; format: cell-based, human; set-up: key to net: net = (RLU:protein)×1000 − 600 (mock transfection level)
Procedure: Conditions: HUH-7 cells are human hepatoma cells that contain substantial amounts of glucocorticoid receptor. The cells are transfected with an expression vector that is constitutively expressing the reporter gene LacZ (CMV-LacZ). Transfection conditions and analysis of LacZ reporter are the same as described in Example 7 legend. Transfection is performed O/N and after rinsing of the precipitate the cells are further incubated for 24 hours. LacZ levels are determined from cell extracts with a chemiluminescence LacZ enzyme assay (Galactolight plus, Tropix). The relative luminescence from each extract is given. Each value represents an individual extract. “Induction”: relative reporter gene activity (values divided by value of assay in lane 9, true negative control for DNA liganding). rel/RLU=(RLU:protein)×1000; net=rel/RLU−600 (600=rel/RLU value approximately corresponding to rel/RLU value of mock transfection).

GR-GFP chimera [3] = test: Nuclear Transfer Induction assay (NTI), diurethane ligands, CV-1 cells; format: cell-based; conditions: 4 hr
Procedure: Conditions: CV-1 cells are transiently transfected with DOTAP (Boehringer-Mannheim) with an expression vector encoding a GR-GFP chimera (see 8.1). After 36 hours expression, ligand is added for 4 hr and cells are fixed and counted as given in 8.1.

[4] = system: CV-1 cells reconstituted with exogenous GR; test: Transfection enhancement, CMV-LacZ reporter, CV-1 cells reconstituted with exogenous GR; format: cell-based, monkey
Procedure: Conditions: CV-1 cells are first infected with an adenovirus system allowing expression of GR in >90% of the cells (S. B. Verca, unpublished). After 24 hours the cells are; transfected with an expression vector that is constitutively expressing the reporter gene LacZ (CMV-LacZ). Transfection conditions and analysis of LacZ reporter are the same as described in Example 7 legend. Transfection is performed O/N and after rinsing of the precipitate the cells are further incubated for 24 hours. LacZ levels are determined from cell extracts with a chemiluminescence LacZ enzyme assay (Galactolight plus, Tropix). The relative luminescence from each extract is given. Each value represents an individual extract. “Induction”: relative reporter gene activity (values divided by value of assay in lane 9, true negative control for liganding), rel/RLU=(RLU:protein)×1000, net=rel/RLU−600 (600=rel/RLU value approximately corresponding to rel/RLU value of mock transfection).

## COC(=O)CCNC(=O)OCC(=O)[C@@]1(O)CCC2C3CCC4=CC(=O)CCC4(C)C3C(O)CC21C (stereo partly shown) [CL-C4]
3Y1 cells; ligand 10^-6M
  light units (relative luminescence, LacZ): 3750 RLU/mg*1000
3Y1 cells; ligand 10^-7M
  light units (relative luminescence, LacZ): 1625 RLU/mg*1000
3Y1 cells; ligand 10^-8M
  light units (relative luminescence, LacZ): 2500 RLU/mg*1000

## Cc1oc2c(C)c3oc(=O)cc(C)c3cc2c1CNC(=O)CCCCCCCCCCNC(=O)OCC(=O)[C@@]1(O)CCC2C3CCC4=CC(=O)CCC4(C)C3C(O)CC21C (stereo partly shown) [CL-C12-Pso]
GR-GFP chimera [1]; ligand 1.10-6M
  C < N, percentage of cells: 53%
  C << N, percentage of cells: 22%
  C = N, percentage of cells: 25%
  C > N, percentage of cells: 0%
  C >> N, percentage of cells: 0%
GR-GFP chimera [1]; ligand 1.10-7M
  C < N, percentage of cells: 3%
  C << N, percentage of cells: 0%
  C = N, percentage of cells: 52%
  C > N, percentage of cells: 40%
  C >> N, percentage of cells: 5%
[2]
  stability of urethane bond between steroid moiety, spacer and DNA binder: stable

## C[C@@H]1C[C@H]2[C@@H]3CCC4=CC(=O)C=C[C@]4(C)[C@@]3(F)[C@@H](O)C[C@]2(C)[C@@]1(O)C(=O)CO [DEX, Dexamethasone, reference compound]
GR-GFP chimera [1]; ligand 1.10-6M
  C < N, percentage of cells: 29%
  C << N, percentage of cells: 71%
  C = N, percentage of cells: 0%
  C > N, percentage of cells: 0%
  C >> N, percentage of cells: 0%
GR-GFP chimera [1]; ligand 1.10-7M
  C < N, percentage of cells: 30%
  C << N, percentage of cells: 67%
  C = N, percentage of cells: 3%
  C > N, percentage of cells: 0%
  C >> N, percentage of cells: 0%
HUH-7 cells; ligand 10-6, HUH-7
  RLU: 238837
  net: 185
  rel/RLU: 314.7
HUH-7 cells; ligand 10-7, HUH-7
  net: 227
  rel/RLU: 357.3
GR-GFP chimera [3]; ligand 5.10-6M
  C < N, percentage of cells: 0.5%
  C << N, percentage of cells: 99.5%
  C = N, percentage of cells: 0%
  C > N, percentage of cells: 0%
  C >> N, percentage of cells: 0%
GR-GFP chimera [3]; ligand 5.10-7M
  C < N, percentage of cells: 1%
  C << N, percentage of cells: 99%
  C = N, percentage of cells: 0%
  C > N, percentage of cells: 0%
  C >> N, percentage of cells: 0%
GR-GFP chimera [3]; ligand 5.10-8M
  C < N, percentage of cells: 5%
  C << N, percentage of cells: 95%
  C = N, percentage of cells: 0%
  C > N, percentage of cells: 0%
  C >> N, percentage of cells: 0%
GR-GFP chimera [3]; ligand 5.10-9M
  C < N, percentage of cells: 42.1%
  C << N, percentage of cells: 57.5%
  C = N, percentage of cells: 0.3%
  C > N, percentage of cells: 0%
  C >> N, percentage of cells: 0%

## Cc1oc2c(C)c3oc(=O)cc(C)c3cc2c1CNC(=O)CCNC(=O)OCC(=O)[C@@]1(O)[C@H](C)CC2C3CCC4=CC(=O)C=CC4(C)[C@@]3(F)C(O)CC21C (stereo partly shown) [DEX-C4-Pso]
GR-GFP chimera [1]; ligand 1.10-6M
  C < N, percentage of cells: 15%
  C << N, percentage of cells: 5%
  C = N, percentage of cells: 60%
  C > N, percentage of cells: 20%
  C >> N, percentage of cells: 0%
GR-GFP chimera [1]; ligand 1.10-7M
  C < N, percentage of cells: 5%
  C << N, percentage of cells: 0%
  C = N, percentage of cells: 40%
  C > N, percentage of cells: 35%
  C >> N, percentage of cells: 20%
[2]
  stability of urethane bond between steroid moiety, spacer and DNA binder: stable

## Cc1oc2c(C)c3oc(=O)cc(C)c3cc2c1CNC(=O)OCCOCCNC(=O)OCCOCCNC(=O)OCC(=O)[C@@]1(O)[C@H](C)CC2C3CCC4=CC(=O)C=CC4(C)[C@@]3(F)C(O)CC21C (stereo partly shown) [DEX-O-O-PSO]
[2]
  stability of urethane bond between steroid moiety, spacer and DNA binder: stable

## CC[n+]1c(-c2ccccc2)c2cc(N)ccc2c2ccc(N)cc21 [EtBr, Ethidium Bromide, reference compound]
3Y1 cells; ligand 10^-6M
  light units (relative luminescence, LacZ): 2250 RLU/mg*1000
3Y1 cells; ligand 10^-7M
  light units (relative luminescence, LacZ): 2500 RLU/mg*1000
3Y1 cells; ligand 10^-8M
  light units (relative luminescence, LacZ): 2750 RLU/mg*1000
HUH-7 cells; ligand 10-6, HUH-7
  RLU: 168920
  induction (relative reporter gene activity, divided by value of lane 9): 1.49
  net: 103
  rel/RLU: 233.3
[4]; ligand 10-6, CV-1 with GR
  RLU: 851
  induction (relative reporter gene activity, divided by value of lane 9): 0.77
  net = rel/RLU−600: 626.2
  rel/RLU = (RLU:protein)×1000: 1226.2
[4]; ligand 10-7, CV-1 with GR
  RLU: 1632
  induction (relative reporter gene activity, divided by value of lane 9): 2.01
  net = rel/RLU−600: 1626
  rel/RLU = (RLU:protein)×1000: 2226.5
